≈ marks a conversion by molar mass, not a printed value.
What was measured:
[1] = target: HDAC (HeLa nuclear extracts); assay: In vitro assay for inhibition of histone deacetylase; format: biochemical; details: [3H]acetylated histone H4 peptide substrate
Method: The in vitro assay for inhibition of histone deacetylase (see example C.1) measures the inhibition of HDAC enzymatic activity obtained with the compounds of formula (I).
HeLa nuclear extracts (supplier: Biomol) were incubated at 60 μg/ml with 2×10^−8 M of radiolabeled peptide substrate. As a substrate for measuring HDAC activity a synthetic peptide, i.e. the amino acids 14-21 of histone H4, was used. The substrate is biotinylated at the NH2-terminal part with a 6-aminohexanoic acid spacer, and is protected at the COOH-terminal part by an amide group and specifically [^3H]acetylated at lysine 16. The substrate, biotin-(6-aminohexanoic)Gly-Ala-([^3H]-acetyl-Lys-Arg -His-Arg-Lys-Val-NH2), was added in a buffer containing 25 mM Hepes, 1 M sucrose, 0.1 mg/ml BSA and 0.01% Triton X-100 at pH 7.4. After 30 min the deacetylation reaction was terminated by the addition of HCl and acetic acid. (final concentration 0.035 mM and 3.8 mM respectively). After stopping the reaction, the free ^3H-acetate was extracted with ethylacetate. After mixing and centrifugation, the radioactivity in an aliquot of the upper (organic) phase was counted in a β-counter.
For each experiment, controls (containing HeLa nuclear extract and DMSO without compound), a blank incubation (containing DMSO but no HeLa nuclear extract or compound) and samples (containing compound dissolved in DMSO and HeLa nuclear extract) were run in parallel. In first instance, compounds were tested at a concentration of 10^−5M. […] In each test the blank value was subtracted from both the control and the sample values. The control sample represented 100% of substrate deactylation. For each sample the radioactivity was expressed as a percentage of the mean value of the controls. […] Herein the effects of test compounds are expressed as pIC50 (the negative log value of the IC50-value).

[2] = system: A2780 ovarian carcinoma cells; assay: Determination of antiproliferative activity on A2780 cells (MTT); format: cell-based; details: Homo sapiens, 96 h, four days of incubation, read-out: Cellular activity pIC50 (converted)
Method: Cellular activity of the compounds of formula (I) was determined on A2780 tumour cells using a colorimetric assay for cell toxicity or survival (Mosmann Tim, Journal of Immunological Methods 65: 55-63, 1983)(see example C.2).
All compounds tested were dissolved in DMSO and further dilutions were made in culture medium. Final DMSO concentrations never exceeded 0.1% (v/v) in cell proliferation assays. Controls contained A2780 cells and DMSO without compound and blanks contained DMSO but no cells. MTT was dissolved at 5 mg/ml in PBS. A glycine buffer comprised of 0.1 M glycine and 0.1 M NaCl buffered to pH 10.5 with NaOH (1 N) was prepared (all reagents were from Merck).
The human A2780 ovarian carcinoma cells (a kind gift from Dr. T. C. Hamilton [Fox Chase Cancer Centre, Pennsylvania, USA]) were cultured in RPMI 1640 medium supplemented with 2 mM L-glutamine, 50 μg/ml gentamicin and 10% fetal calf serum. Cells were routinely kept as monolayer cultures at 37° C. in a humidified 5% CO2 atmosphere. Cells were passaged once a week using a trypsin/EDTA solution at a split ratio of 1:40. All media and supplements were obtained from Life Technologies. Cells were free of mycoplasma contamination as determined using the Gen-Probe Mycoplasma Tissue Culture kit (supplier: BioMérieux).
Cells were seeded in NUNC™ 96-well culture plates (Supplier: Life Technologies) and allowed to adhere to the plastic overnight. Densities used for plating were 1500 cells per well in a total volume of 200 μl medium. After cell adhesion to the plates, medium was changed and drugs and/or solvents were added to a final volume of 200 μl. Following four days of incubation, medium was replaced by 200 μl fresh medium and cell density and viability was assessed using an MTT-based assay. To each well, 25 μl MTT solution was added and the cells were further incubated for 2 hours at 37° C. The medium was then carefully aspirated and the blue MTT-formazan product was solubilized by addition of 25 μl glycine buffer followed by 100 μl of DMSO. […] Within an experiment, the results for each experimental condition are the mean of 3 replicate wells. For initial screening purposes, compounds were tested at a single fixed concentration of 10^−6 M. For active compounds, the experiments were repeated to establish full concentration-response curves. For each experiment, controls (containing no drug) and a blank incubation (containing no cells or drugs) were run in parallel. The blank value was subtracted from all control and sample values. For each sample, the mean value for cell growth (in absorbance units) was expressed as a percentage of the mean value for cell growth of the control. […] Herein the effects of test compounds are expressed as pIC50 (the negative log value of the IC50-value).

[3] = Kinetic solubility in aqueous media (nephelometry); format: physicochemical; details: aqueous buffer, kinetic from dmso stock; phosphate citrate buffer pH 7.4, turbidity of three dilution steps; read-out: Solubility Score
Method: Kinetic solubility in aqueous media measures the ability of a compound to stay in aqueous solution upon dilution (see example C.3).
DMSO-stock solutions are diluted with a single aqueous buffer solvent in 3 consecutive steps. For every dilution turbidity is measured with a nephelometer.
In the first dilution step, 10 μl of a concentrated stock-solution of the active compound, solubilized in DMSO (5 mM), was added to 100 μl phosphate citrate buffer pH 7.4 and mixed. In the second dilution step, an aliquot (20 μl) of the first dilution step was further dispensed in 100 μl phosphate citrate buffer pH 7.4 and mixed. Finally, in the third dilution step, a sample (20 μl) of the second dilution step was further diluted in 100 μl phosphate citrate buffer pH 7.4 and mixed. All dilutions were performed in 96-well plates. Immediately after the last dilution step the turbidity of the three consecutive dilution steps were measured with a nephelometer. Dilution was done in triplicate for each compound to exclude occasional errors. Based on the turbidity measurements a ranking is performed into 3 classes. Compounds with high solubility obtained a score of 3 and for this compounds the first dilution is clear. Compounds with medium solubility obtained a score of 2. For these compounds the first dilution is unclear and the second dilution is clear. […] The solubility of 3 compounds was measured.

| Compound | Enzyme activity pIC50 [1] | IC50 [2] [nM] | solubility [3] [µM] | melting point [°C] |
| --- | --- | --- | --- | --- |
| Cc1ccc(NC(=O)N2CCN(c3ccc(C(=O)NO)cc3)CC2)cc1 [Co. No. 1] | 6.754 | 4700 | < 75.8 | – |
| Cc1ccc(NC(=O)N2CCN(c3ccc(C(=O)NCCO)cc3)CC2)cc1 [Co. No. 2] | <5 | > 10000 | – | – |
| Cc1ccc(NC(=O)N2CCN(c3ccc(NC(=O)CS)cc3)CC2)cc1 [Co. No. 3] | 5.332 | > 10000 | – | – |
| O=C(NO)c1cnc(N2CCN(C(=O)N(c3ccccc3)c3ccccc3)CC2)nc1 [Co. No. 4] | 7.127 | 769 | – | – |
| O=C(NCC1CCN(c2ncc(C(=O)NO)cn2)CC1)Nc1ccc(-c2ccccc2)cc1 [Co. No. 5] | 7.65 | 711 | 75.8 to 454 (≈ 33.8 to 203 µg/mL) | > 260 |
| O=C(NO)c1cnc(N2CCN(C(=O)Nc3ccc(-c4ccccc4)cc3)CC2)nc1 [Co. No. 6] | 7.728 | 277 | > 454 | > 260 |
| Cc1cccc(C)c1NC(=O)N1CCN(c2ccc([N+](=O)[O-])cc2C(=O)NO)CC1 [compound 30] | >5 | – | – | – |
| CN(C(=O)N1CCN(c2ncc(C(=O)NO)cn2)CC1)c1ccccc1 [compound 48] | 7.163 | 723 | – | – |

Reference: US7501417B2, “Aminocarbonyl-derivatives as novel inhibitors of histone deacetylase” (Janssen Pharmaceutica, N.V., priority 2002, dated 2009)
